# According to US8440648B2, “Methods and compositions for treatment of intraepithelial neoplasia” (Erimos Pharmaceuticals LLC, priority 2004, dated 2013):
# Assays:
# [1] = Serum levels of M4N in the fourteen day rabbit intravaginal study; type: in vivo, New Zealand White rabbits; settings: M4N 20 mg/g in white petrolatum, 1 mL intravaginally daily, rabbits; levels inconsistent, minimal absorption
# Description: Fourteen Day Rabbit Intravaginal Topical Toxicology Study. […] Ten female rabbits (5 per group) were dosed.
# [2] = test system: women with Cervical Intraepithelial Neoplasia; experiment: Pilot clinical trial of intravaginal M4N: systemic and local toxicity; type: in vivo
# Source text: (§1) This study was designed to look at the systemic and local toxicity of tetra-O-methyl NDGA (M4N) administered intravaginally to women once a week for three weeks. Patients, at the time of screening, had visible cervical lesions, were HPV positive, and had previous biopsy confirmed Cervical Intraepithelial Neoplasia (CIN). Cervical biopsies were taken at Day 1 and follow up biopsies were taken at Day 71. Five patients have been enrolled in the study, and three patients have completed the study through Day 71.
# (§2) The first four patients received 5 mL of a 1% formulation of M4N in white petrolatum once weekly for each of three weekly doses. […] One patient received 5 mL of a 2% M4N formulation in white petrolatum at each of two weekly doses to date. […] The relationship to the study drug administration is unknown.
# [3] = Pilot clinical trial of intravaginal M4N: serum levels; type: in vivo; settings: after intravaginal administration of the 1% formulation in white petrolatum, women
# Source text: as §1, §2
# [4] = test system: Cervical Intraepithelial Neoplasia (CIN); experiment: Pilot clinical trial of intravaginal M4N: preliminary efficacy from cervical biopsies; type: in vivo, women; settings: three patients, 3 weekly doses of 1% M4N in white petrolatum
# Source text: as §1
# Preliminary efficacy data was collected from cervical biopsies at Day 1 and Day 71 from the three patients that completed the Day 71 visit after receiving 3 doses of the 1% formulation of M4N.
# [5] = test system: New Zealand White rabbits; experiment: Fourteen day rabbit intravaginal topical toxicology study (local and systemic toxicity); settings: M4N 20 mg/g in white petrolatum
# Description: This study was designed to look at the local and systemic toxicity of tetra-O-methyl NDGA (M4N) administered intravaginally in New Zealand White rabbits for 14 days. Rabbits were dosed daily with 1 mL of a white petrolatum formulation of M4N (20 mg/g) or placebo. Ten female rabbits (5 per group) were dosed. Local effects of drug were scored using the Draize scoring system daily, and gross pathology and histopathology was obtained at necropsy on termination of the dosing period.
# [6] = 1 mL intravaginally daily for 14 days
smiles,measurement,setting,value
"COc1ccc(C[C@@H](C)[C@@H](C)Cc2ccc(OC)c(OC)c2)cc1OC [M4N, meso-1,4-bis(3,4-dimethoxyphenyl)-2,3-dimethylbutane]",Serum level at peak concentration,[1],less than 10 ng/mL
same,Irritation or toxicity,"[2]; 5 mL of 1% M4N in white petrolatum intravaginally once weekly, three doses, four patients",No irritation or toxicity was reported
same,Vaginal irritation or toxicity,"[2]; 5 mL of 2% M4N in white petrolatum intravaginally, two weekly doses, one patient",No vaginal irritation or toxicity was reported
same,Vulvar irritation,"[2]; 5 mL of 2% M4N in white petrolatum intravaginally, two weekly doses, one patient, relationship to drug unknown",minor vulvar irritation was reported
same,Serum levels,[3],below limit of quantification
same,"Response in cervical biopsies, Day 71 versus Day 1",[4],"one patient had a complete response, one patient had a partial response, and one patient showed disease progression"
same,"Vaginal observations: mild edema, animals affected",[5]; [6],2/5
same,"Vaginal observations: mild erythema, animals affected",[5]; [6],3/5
same,Survival until scheduled termination,"[5]; 1 mL intravaginally daily for 14 days, rabbits",All animals survived until scheduled termination
same,"Vaginal observations: minimal edema, animals affected","[5]; 1 mL intravaginally daily for 14 days, control 2/5",1/5
same,Weekly clinical and twice daily cage-side observations,[5]; intravaginally daily for 14 days,No findings were noted
same,Clinical pathology findings,"[5]; intravaginally daily for 14 days, considered incidental","lower absolute basophil counts, and ALT values"
same,Histopathology findings,"[5]; intravaginally daily for 14 days, relation to drug unknown","in one M4N-treated rabbit, heterophil infiltrates were seen in the vaginal mucosa"
